# From patent US12246034B2, “Animal feed supplement and method” (CAN TECHNOLOGIES, INC., priority 2014, dated 2025)
# Where two headings read alike, the source gives them in different places.
# Tests used:
# sows [1] = conditions: for NBA (Number Born Alive) / TNB (Total Number Born) / Litter growth, 24 hour to 3 days / Litter growth, Start to 24 hour / Litter growth, Start to 3 days / Piglet weight, 24 hour / Piglet weight, 3 days / Piglet weight, Start / Birth weight: LS Means ± SEM; for NBD (Number Born Death), stillborn piglets / Mortality: log transformed, back-transformed to absolute values; for Litter weight, 24 hour / Litter weight, 3 days / Litter weight, Start: corrected for mortality and cross fostering; for Birth weight: litter
# Protocol: A field trial was conducted on a commercial farm in Denmark with 650 highly productive Danbred sows (Landrace x Yorkshire) inseminated with a pure line Duroc boar, between Nov. 17, 2014 and Jan. 16, 2015. A total of 139 sows (total number before analyzes) were included in the trial, divided over 3 subsequent sow groups farrowing over a time span of 6 weeks. For all analyzes SAS software (version 9.3, SAS Institute Inc., Cary, N.C.) was used. Sows received a dry meal transition feed (from gestation to lactation), fed from day 111 of gestation till day 5 of lactation, and were allocated to one of the two treatment groups based on parity. […] The total amount of calcium was equal between both experimental treatments. Number born alive (NBA), stillborn and mummies, litter birth weight, as well as back fat of the sows before farrowing (day 110 of gestation) and at weaning (day 24 of lactation) were measured. Litter weights at 24 hours and 3 days after birth were measured as well. On day 3 after birth blood samples were taken from 6 piglets (2 biggest, 2 medium and 2 smallest) from 65 litters of their tails when they were cut and analyzed on immunoglobulin G (IgG) concentration. Placentas of the sows were collected after the farrowing process was finished, stored in freezers and afterwards scored on redness for an indication of the vascularization of these placentas.
# sows [2] = conditions: for Probability of piglet Livability: 1-((stillborn + died pre weaning)/total pigs after cross fostering)
# Text: During lactation, sows were fed either the positive control or negative control standard lactation diet according to a step-up feeding schedule. Until farrowing the sows were fed a fixed amount of either the positive or negative controls of the standard lactation diet twice a day. After farrowing the amount of feed either the positive or negative controls of the standard lactation diet fed was increased gradually till a maximum of 8 kg/sow per day. The amount of which could be adjusted based on the appetite of the sow. Piglets were fed Ad libitum (no milk was provided other than from the sow a commercial creep feed (meal, dry) from day 4-16 of age and a pelleted commercial prestarter from day 16 till weaning. In total, 150 sows were allocated over the three rooms based on parity. Within 2 days after farrowing, litters were standardized to 13-14 piglets per sow.
# The following measurements were recorded as shown in TABLE 1C: (i) sow weight and backfat thickness when entering the farrowing room (day 111 of gestation) and at weaning (22 days post farrowing); (ii) sow reproductive performance was recorded right after farrowing (number of piglets born total, alive, stillborn, mummified); (iii) piglets weights were recorded at birth, day 5 after birth and at weaning; (iv) creep feed intake of piglets between day 4 and weaning was recorded; (v) number of piglets alive at day 4 and at weaning were registered; (vi) when piglets died, the reason for dying was also registered; and (vii) interventions during the birth process (e.g. the use of planate, oxytocin and birth assistance).
# sows [3] = conditions: 0.1% calcium nitrate in phase 1 diet, 19 May 2014 till 16 Aug. 2014
# Protocol: 600 sows and all sows were fed two diets over the test period. The first diet (phase 1) was fed from approximately 5 days pre-farrowing until 5 days post-farrowing. The second diet (phase 2) was fed from day 5 post-farrowing until weaning.
# The following measurements were recorded as shown in TABLE 2A: (i) gestation length; (ii) sow reproductive performance was recorded right after farrowing (number of piglets born total, alive, stillborn); (iii) piglet; (iv) total piglets weaned; (v) weaning weights; and (vi) piglets per sow per year; and […].
# [4] = 0.1% Bolifor CNF in transition feed, listed as Bolifor CNF ®
# [5] = 0.1% Bolifor CNF in transition feed, listed as Bolifor CNF®
# [6] = 0.1% Bolifor CNF, listed as Bolifor CNF ®
# [7] = 0.1% Bolifor CNF, listed as Bolifor CNF®
# [8] = 0.1% Bolifor CNF in lactation diet, means
# [9] = 0.1% Bolifor CNF, induction of sows as covariable
# [10] = 0.1% Bolifor CNF, induction of sows as covariable, listed as calcium nitrate
# [11] = piglets, 0.1% Bolifor CNF, corrected for lactation length
compound,measurement,setting,value
"O=[N+]([O-])[O-].O=[N+]([O-])[O-].[Ca+2] [Bolifor CNF, calcium nitrate]",NBA (Number Born Alive),sows [1]; [4],16.84 ± 0.170
same,TNB (Total Number Born),sows [1]; [4],17.90 ± 0.460
same,NBA (Number Born Alive),sows [1]; [5],16.84
same,TNB (Total Number Born),sows [1]; [5],did not differ
same,"NBD (Number Born Death), stillborn piglets",sows [1]; [4],1.32 ± 0.006
same,"NBD (Number Born Death), stillborn piglets",sows [1]; [5],1.32
same,"Litter growth, 24 hour to 3 days",sows [1]; [6],1.80 ± 0.140 kg/day
same,"Litter growth, Start to 24 hour",sows [1]; [6],1.21 ± 0.161 kg/day
same,"Litter growth, Start to 3 days",sows [1]; [6],3.03 ± 0.234 kg/day
same,"Piglet weight, 24 hour",sows [1]; [6],1.41 ± 0.012 kg
same,"Piglet weight, 3 days",sows [1]; [6],1.55 ± 0.018 kg
same,"Piglet weight, Start",sows [1]; [6],1.32 ± 0.046 kg
same,"Litter growth, 24 hour to 3 days",sows [1]; [7],no differences were found
same,"Litter growth, Start to 24 hour",sows [1]; [7],no differences were found
same,"Litter growth, Start to 3 days",sows [1]; [7],no differences were found
same,"Piglet weight, 24 hour",sows [1]; [7],did not differ
same,"Piglet weight, 3 days",sows [1]; [7],did not differ
same,"Piglet weight, Start",sows [1]; [7],did not differ
same,"Colostrum, CI per piglet","sows [1]; 0.1% Bolifor CNF, calculated colostrum intake",222.02 g
same,"Colostrum, CI (Colostrum Intake)","sows [1]; 0.1% Bolifor CNF, calculated colostrum intake, listed as Bolifor CNF ®",2858.60 g
same,"Colostrum, CI (Colostrum Intake)","sows [1]; 0.1% Bolifor CNF, calculated colostrum intake, listed as Bolifor CNF®",No differences were found
same,"Litter weight, 24 hour",sows [1]; [6],18.14 kg
same,"Litter weight, 3 days",sows [1]; [6],19.93 kg
same,"Litter weight, Start",sows [1]; [6],16.70 kg
same,"Litter weight, 24 hour",sows [1]; [7],did not differ
same,"Litter weight, 3 days",sows [1]; [7],did not differ
same,"Litter weight, Start",sows [1]; [7],did not differ
same,"Piglet growth, 24 hour to 3 days",sows [1]; [6],0.140 kg/day
same,"Piglet growth, Start 3 days",sows [1]; [6],0.235 kg/day
same,"Piglet growth, Start to 24 hour",sows [1]; [6],0.093 kg/day
same,"Piglet growth, 24 hour to 3 days",sows [1]; [7],no differences were found
same,"Piglet growth, Start 3 days",sows [1]; [7],no differences were found
same,"Piglet growth, Start to 24 hour",sows [1]; [7],no differences were found
same,Mortality,sows [1]; [6],1.87
same,Mortality,sows [1]; [7],did not differ
same,Birth weight,sows [1]; [4],21.70 ± 0.614 kg
same,Birth weight,sows [1]; [5],did not differ
same,"NBD, highest parity group","sows [1]; parities >4, 0.1% Bolifor CNF in transition feed",1.21
same,Probability Born Mummified,sows [2]; 0.1% Bolifor CNF in lactation diet,2.3%
same,Total born,sows [2]; [8],16.3
same,Total born alive,sows [2]; [8],15.3
same,Total still born,sows [2]; [8],1.0
same,Total weaned,sows [2]; [8],13.1
same,Probability of piglet Livability,sows [2]; 0.1% Bolifor CNF,89.8
same,Probability of piglet Livability,"sows [2]; 0.1% Bolifor CNF, listed as calcium nitrate",numerically higher
same,Probability Still Born,sows [2]; [9],6.2%
same,Probability born alive,sows [2]; [9],93.8%
same,Probability of piglet mortality from cross fostering (day 4-5)-weaning,sows [2]; [9],2.0%
same,Probability of piglets alive at day 4-5,sows [2]; [9],92.5%
same,Probability Still Born,sows [2]; [10],numerically lower
same,Probability born alive,sows [2]; [10],numerically higher
same,ADG 0-5,"sows [2]; piglets, 0.1% Bolifor CNF",157 g/day
same,ADG 5-weaning,"sows [2]; piglets, 0.1% Bolifor CNF",245.3 g/day
same,Average birth weight,"sows [2]; piglets, 0.1% Bolifor CNF",1.36 kg
same,Average weight post fostering,"sows [2]; piglets, 0.1% Bolifor CNF",2.30 kg
same,Litter weight Pre fostering,"sows [2]; piglets, 0.1% Bolifor CNF",19.8 kg
same,Litter weight post fostering,"sows [2]; piglets, 0.1% Bolifor CNF, calculated, not measured",30.8 kg
same,Average weight at weaning,sows [2]; [11],6.71 kg
same,Litter weight at weaning,sows [2]; [11],82.0 kg
same,Litter weight at weaning,"sows [2]; piglets, 0.1% Bolifor CNF, corrected for lactation length, listed as calcium nitrate",numerically higher
same,Born Alive,sows [3],15.8
same,Mortality,sows [3],10.5%
same,Piglets/sow/year,sows [3],34.1
same,Pregnancy rate,sows [3],94.5%
same,Total born,sows [3],17.3
same,Weaning weight,sows [3],6.7 kg
same,Piglet Livability,sows [3]; listed as Calcium nitrate,82.7%
same,Piglets Weaned,sows [3]; listed as Calcium nitrate,14.3
same,Still Born,sows [3]; listed as Calcium nitrate,1.5
same,Piglet Livability,sows [3]; listed as calcium nitrate,increase
same,Piglets Weaned,sows [3]; listed as calcium nitrate,increase
same,Still Born,sows [3]; listed as calcium nitrate,decrease
